According to ChEMBL document CHEMBL1125173, “Cannabimimetic activity of novel enantiomeric, benzofuran cannabinoids” (1990):

What was measured:
Assay type in all cases: functional
Columba livia [1] = experiment: Effective Dose when administered at a dose of 0.99 mg/kg in pigeons; details: in Columbidae
Mus musculus [2] = experiment: Psychotropic Effect evaluated by Mouse Ring Test at a dose of 20 mg/kg
Mus musculus [3] = experiment: Psychotropic Effect evaluated by Mouse Ring Test at a dose of 1 mg/kg
Mus musculus [4] = experiment: Psychotropic Effect evaluated by Mouse Ring Test at a dose of 0.1 mg/kg
Rattus norvegicus [5] = experiment: Effective Dose when administered at a dose of 0.98 mg/kg in rats
Mus musculus [6] = experiment: Psychotropic Effect evaluated by Mouse Ring Test at a dose of 10 mg/kg
Columba livia [7] = experiment: Effective Dose when administered at a dose of 0.78 mg/kg in pigeons; details: in Columbidae
Rattus norvegicus [8] = experiment: Effective Dose when administered at a dose of 0.94 mg/kg in rats
Columba livia [9] = experiment: Effective Dose when administered in pigeons; details: in Columbidae

| SMILES | ED50 (Columba livia [1]) | Psychotropic Effect (Mus musculus [2]) | Psychotropic Effect (Mus musculus [3]) | Psychotropic Effect (Mus musculus [4]) | ED50 (Rattus norvegicus [5]) | Psychotropic Effect (Mus musculus [6]) | ED50 (Columba livia [7]) | ED50 (Rattus norvegicus [8]) | ED50 (Columba livia [9]) |
| --- | --- | --- | --- | --- | --- | --- | --- | --- | --- |
| C=C1[C@H]2Oc3cc(C(C)(C)CCCCCC)cc(O)c3[C@H]2[C@@H]2C[C@H]1C2(C)C | 0.17 mg/kg | 89.2 | 42 | 13.2 | 0.72 mg/kg | 66.1 |  |  |  |
| C=C1[C@H]2Oc3cc(C(C)(C)CCCCCC)cc(O)c3[C@H]2[C@H]2C[C@@H]1C2(C)C |  | 43.2 | 20 | 10 |  | 28.1 | 3.57 mg/kg |  |  |
| CCCCCc1cc(O)c2c(c1)OC(C)(C)[C@@H]1CC=C(C)C[C@@H]21 [DELTA-8-TETRAHYDROCANNABINOL] |  |  | 20.9 | 13.2 |  | 41.3 |  |  |  |
| CCCCCc1cc(O)c2c(c1)OC(C)(C)[C@@H]1CCC(C)=C[C@@H]21 [DRONABINOL] |  |  |  |  |  |  |  | 0.66 mg/kg | 0.18 mg/kg |
